Measured values published in patent publication US12435083B2, “Cyclopropyl-(hetero)aryl-substituted ethylsulphonyl-pyridine derivatives” (BOEHRINGER INGELHEIM VETMEDICA GMBH, priority 2021, dated 2025).
Read-outs that look alike come from different tables or passages of the source.

Tests used:
Aedes aegypti L1 larvae = assay: Activity against larvae of Aedes aegypti (L1 larvae, 384-well, image-based mortality); details: 48 h at 27° C., 384-well, read-out: EC50 (percentage of mortality, A. aegypti L1 larvae)
Description: Example 3: Screening Method to Test Activity of Compounds of Formula (I) Against Larvae of Aedes aegypti
Eight A. aegypti L1 larvae in a total volume of 64 μL water were added to 384-well microplates containing compounds formulated in 100% DMSO. The plates were incubated for 48 h at 27° C. Individual well images were acquired and analyzed using a pipeline to quantitatively assess the amount of larvae biomass accumulating at the bottom of the well. The efficacy of a compound at a given dose is expressed as “percentage of mortality” and determined by comparison to average biomass descriptors of positive and negative control wells containing 1.0 μM Fipronil or DMSO only, respectively. Dose response assay were conducted to determine an EC50 value.

[1] = system: adult Rhipicephalus sanguineus ticks; assay: Contact activity against adult Rhipicephalus sanguineus (coated vial, mortality at 48 h); details: Rhipicephalus sanguineus; 48 hours post-treatment, coated vial; read-out: EC50 (percentage mortality, adult R. sanguineus, contact)
Description: Example 5: Screening Method to Test Contact Activity of Compounds of Formula (I) Against Adult Rhipicephalus sanguineus
Compounds of formula (I) formulated in 100% DMSO were diluted in a solution containing acetone and Triton X-100 (0.02%). The resulting formulation was used to coat the inner walls of glass scintillation vials and the filter paper covering the cap of the vial. Once dried, ten adult R. sanguineus ticks were added to the vials. The vials were incubated at 24° C., 95% relative humidity, and 12 hours of light/12 hours of dark until evaluation. Ticks were visually evaluated for mortality at 48 hours post-treatment. Compound efficacy at a given dose is expressed as percentage mortality. A dose response series was implemented to determine EC50 values.
(§1) The four structurally closest prior art compounds (A), (B), (C) and (D) specifically excluded from the scope of formula (I) were characterized vis-a-vis selected compounds of formula (I) with regard to their potency in in vitro screening assays against fleas (Ctenocehalides felis) and ticks (Rhipicephalus sanguineus).
(§2) However, as explained above, spectrum of action against this range of species (i.e. fleas and ticks) is a desirable property of ectoparasiticides for veterinary use. In the following table 1 comparative experimental data of the in vitro assays are shown regarding flea membrane feeding (ingestion, blood feeding) activity against Ctenocephalides felis and contact activity against Rhipicephalus sanguineus.

[2] = system: adult Ctenocephalides felis fleas; assay: Contact activity against adult Ctenocephalides felis (treated surface, motility by machine vision, 24 h); details: treated surface, 24h, read-out: EC80 (% motility reduction, adult C. felis, contact)
From the text: Example 7: Screening Method to Test Contact Activity of Compounds of Formula (I) Against Adult Ctenocephalides felis

Plutella xylostella = assay: Insecticidal test on Plutella xylostella (Chinese cabbage seedling dip); details: 144 h, 500 ppm, seedling dip, 6 days after dip treatment, read-out: activity level (corrected mortality rate), Plutella xylostella
Description: Example 12: Insecticidal Test on Plutella xylostella
(§3) The compounds of formula (I) of the present invention or salts thereof were separately dispersed in water and diluted to 500 ppm. Ten adults of Plutella xylostella were released onto Chinese cabbage seedlings and allowed to lay eggs thereon. 2 days after the release of the adults, the seedling was dipped in the dispersion for about 30 seconds. After air dried, the seedling was kept in a room at 25° C. 6 days after the dip treatment, the numbers of the dead and alive insects were counted. The corrected mortality rate was calculated according to the following formula and the insecticidal activity was evaluated according to the following criteria. Corrected mortality rate (%)=100×(Survival rate in an untreated plot−Survival rate in a treated plot)/Survival rate in an untreated plot • A: the corrected mortality rate is 100% • B: the corrected mortality rate is 90 to 99% • C: the corrected mortality rate is 80 to 89% • D: the corrected mortality rate is 50 to 79%

[3] = system: Laodelphax striatellus 3rd-instar nymphs; assay: Insecticidal test on Laodelphax striatellus (rice seedling dip); details: 192 h, 500 ppm, seedling dip, 8 days after inoculation, read-out: activity level (corrected mortality rate), Laodelphax striatellus
Description: Example 13: Insecticidal Test on Laodelphax striatellus
as §3, with “Rice plant seedlings” for “Ten adults of Plutella xylostella”, “were” for “were released onto Chinese cabbage seedlings and allowed to lay eggs thereon. 2 days after the release of the adults, the seedling was”, “seedlings were put into a separate glass test tube and inoculated with ten 3rd-instar nymphs of Laodelphax striatellus and then the glass test tube” for “seedling”, “8” for “6”, “inoculation,” for “dip treatment,”

Myzus persicae = assay: Insecticidal test on Myzus persicae (foliar application on potted Chinese cabbage); details: 144 h, read-out: control efficacy level (control rate), Myzus persicae
From the text: Example 14: Insecticidal Test on Myzus persicae
The compounds of formula (I) of the present invention or salts thereof were separately dispersed in water and diluted to 500 ppm. Chinese cabbage plants were planted in plastic pots (diameter: 8 cm, height: 8 cm). Aphids (Myzus persicae) were propagated on the plants and then the number of surviving aphids was counted. The dispersion was applied to the foliage of the potted plants. After the plants were air dried, these were kept in a greenhouse. 6 days after the application, the number of the alive insects was counted on the plants. The control rate was calculated according to the following formula and the control efficacy was evaluated according to the following criteria. Control rate (%)=100−{(T×Ca)/(Ta×C)}×100 • Ta: the number of alive insects before the foliar application in a treated plot • T: the number of alive insects after the foliar application in a treated plot • Ca: the number of alive insects before the foliar application in an untreated plot • C: the number of alive insects after the foliar application in an untreated plot • A: the control rate is 100% • B: the control rate is 90 to 99% • C: the control rate is 80 to 89% • D: the control rate is 50 to 79%

[4] = system: adult Ctenocephalides felis fleas; assay: Ingestion activity (flea membrane feeding, blood feeding) against adult Ctenocephalides felis; details: Ctenocephalides felis; bovine blood, 24h post treatment; read-out: EC80 (% motility reduction, adult C. felis, ingestion via membrane feeding)
From the text: Example 6: Screening Method to Test Ingestion Activity of Compounds of Formula (I) Against Adult Ctenocephalides felis
as §1
It is important to note that compounds that show better activity versus ticks are more desirable in the animal health field, as ticks are more difficult to control than fleas. Noteworthy, in particular with regard to fleas the illustrated comparative data are based on a flea membrane feeding (ingestion, blood feeding) assay. Data from this assay are more relevant for compounds intended to be delivered systemically to an animal via oral or injectable routes. Membrane feeding assays differ to primary screening laboratory contact assays in that the latter only measure the effect of the direct contact of selected compounds on the parasite, such as the flea or the tick. The information derived from laboratory contact assays is strictly limited to the ability of the compound to be absorbed through the parasite surface and to reach its molecular target, and no information can be gleaned from these contact assays as to whether the compound would also be active when presented orally to the ectoparasite itself in a blood meal, such as with the membrane feeding assay, and certainly not when administered orally to an animal host (e.g. “in vivo”) with subsequent exposure to the ectoparasite.
as §2

[5] = system: Spodoptera litura 2nd-instar larvae; assay: Insecticidal test on Spodoptera litura (cabbage leaf dip); details: foliar, 192 h, 8 days after inoculation, read-out: activity level (corrected mortality rate), Spodoptera litura
Description: Example 11: Insecticidal Test on Spodoptera litura
as §3, with “Cabbage leaves” for “Ten adults of Plutella xylostella”, “were” for “were released onto Chinese cabbage seedlings and allowed to lay eggs thereon. 2 days after the release of the adults, the seedling was”, “leaves were placed in a plastic Petri dish with a diameter of 9 cm and inoculated with ten 2nd-instar larvae of Spodoptera litura, after which the dish” for “seedling”, “closed and then allowed to stand” for “kept”, “8” for “6”, “inoculation,” for “dip treatment,”

[6] = 500 ppm, foliar application, 6 days after application

Compound | EC50 (Aedes aegypti L1 larvae) [nM] | EC50 [1] [nM] | EC80 [2] [nM] | mortality at 500 ppm (Plutella xylostella) [%] | mortality at 500 ppm [3] [%] | pest or weed control at 500 ppm (Myzus persicae; [6]) [%] | EC80 [4] [nM] | mortality at 500 ppm [5] [%] | pest or weed control at 500 ppm (Myzus persicae; foliar) [%]
CCS(=O)(=O)c1cc(-c2ccc(C3CC3)cc2)cnc1-n1nc2cc(SC(F)(F)F)ncc2c1Cl [Compound 27, 2-[3-chloro-6-[(trifluoromethyl)sulfanyl]pyrazolo[4,3-c]pyridin-2-yl]-5-(4-cyclopropylphenyl)-3-(ethanesulfonyl)pyridine] | < 40 | < 10000 | 1000 to 10000 |  |  |  |  |  | 
CCS(=O)(=O)c1cc(-c2ccc(C3CC3)cc2)cnc1-n1cc2cnc(S(=O)(=O)C(F)(F)F)cc2n1 [Compound 30, 5-(4-cyclopropylphenyl)-3-(ethanesulfonyl)-2-[6-trifluoromethanesulfonylpyrazolo[4,3-c]pyridin-2-yl]pyridine] | < 40 |  | 1000 to 10000 |  |  |  |  |  | 
CCS(=O)(=O)c1cc(-c2ccc(C3CC3)cc2)cnc1-c1ccc(OCC(F)(F)C(F)(F)F)cn1 [Compound 52, 5-(4-cyclopropylphenyl)-3-(ethanesulfonyl)-5′-(2,2,3,3,3-pentafluoropropoxy)-2,2′-bipyridine] | < 40 | < 10000 |  | 100 | 100 | 100 |  |  | 
CCS(=O)(=O)c1cc(-c2ccnc(C3CC3)c2)cnc1-c1nc2cc(C(F)(F)C(F)(F)F)nnc2n1C [Compound 60, 2′-cyclopropyl-5-(ethanesulfonyl)-6-[7-methyl-3-(1,1,2,2,2-pentafluoroethyl)imidazo[4,5-c]pyridazin-6-yl]-3,4′-bipyridine] | < 40 | 10000 to 100000 | 1000 to 10000 | 100 | 100 |  |  |  | 
CCS(=O)(=O)c1cc(-c2ccc(C3CC3)cc2)cnc1-c1nc2cc(S(=O)(=O)C(F)(F)F)cnc2n1C [Compound 82, 5-(4-cyclopropylphenyl)-3-(ethanesulfonyl)-2-[3-methyl-6-trifluoromethanesulfonylimidazo[4,5-b]pyridin-2-yl]pyridine] | < 40 |  | 1000 to 10000 | 100 | 100 |  |  |  | 
CCS(=O)(=O)c1cc(-c2ccc(C3CC3)cc2)cnc1-c1nc2cc(SC(F)(F)F)cnc2n1C [Compound 83, 5-(4-cyclopropylphenyl)-3-(ethanesulfonyl)-2-[3-methyl-6-[(trifluoromethyl)sulfanyl]imidazo[4,5-b]pyridin-2-yl]pyridine] | < 40 |  | 1000 to 10000 | 100 | 100 | 100 |  |  | 
CCS(=O)(=O)c1cc(-c2ccc(C3CC3)cc2)cnc1-c1cc2n(CC(F)(F)F)cc(C(F)(F)F)cc-2n1 [Compound 107, 5-(4-cyclopropylphenyl)-3-(ethanesulfonyl)-2-[4-(2,2,2-trifluoroethyl)-6-(trifluoromethyl)pyrrolo[3,2-b]pyridin-2-yl]pyridine] |  |  | 1000 to 10000 |  |  |  | 1000 to 10000 | 100 | 
CCS(=O)(=O)c1cc(-c2ccc(C3CC3)nc2)cnc1-c1ccc(OCC(F)(F)C(F)(F)F)cn1 [Compound 123, 6′-cyclopropyl-5-(ethanesulfonyl)-6-[5-(2,2,3,3,3-pentafluoropropoxy)pyridin-2-yl]-3,3′-bipyridine] |  |  |  | 100 | 100 |  |  | 100 | 100
CCS(=O)(=O)c1cc(-c2cccc(C3(C(F)(F)F)CC3)n2)cnc1-c1cc2n(CC(F)F)cc(C(F)(F)F)cc-2n1 [Compound 171, 6′-[4-(2,2-difluoroethyl)-6-(trifluoromethyl)pyrrolo[3,2-b]pyridin-2-yl]-5′-(ethanesulfonyl)-6-[I-(trifluoromethyl)cyclopropyl]-2,3′-bipyridine] |  |  | 1000 to 10000 | 100 |  |  | 1000 to 10000 | 100 | 
CCS(=O)(=O)c1cc(-c2ccc(C3(C(F)(F)F)CC3)cc2)cnc1-c1nc2cc3c(cc2n1C)OC(F)(F)O3 [compound 129] |  |  | 1000 to 10000 | 100 | 100 |  | 1000 to 10000 | 100 | 
CCS(=O)(=O)c1cc(-c2nccc(C3CC3)n2)cnc1-c1nc2cc(C(F)(F)C(F)(F)F)nnc2n1C [compound 143] |  |  | < 1000 | 100 | 100 |  | < 1000 | 100 | 
